# EP2649091B1, “IMMUNE RESTRICTED PEPTIDES WITH INCREASED EFFICACY” (Stichting Het Nederlands Kanker Instituut, priority 2010, dated 2012)
# What was measured:
# HLA-A0201 = HLA-A0201 (Homo sapiens, UniProt P04439, D140Y/D185E/D98H/E176V/E277Q/G131W/G231S/I119V/I121R/I166T/I218V/L300P/L318F/N151K/N90K/P208A/P217A/Q86G/Q94H/R138H/R169H/T345S); format: binding
# [1] = tested on: SVYDFFVWL (TRP-2 180-188) reactive T cells; experiment: T cell activation time course assay, IFNγ production (FACS), TRP-2 epitope; details: for % CD8+ T cells producing IFN-γ peptide concentrations in picomolar 24H 0.5 / Geometric mean IFN-γ in arbitrary fluorescence units peptide concentrations in picomolar 24H 0.5 / % CD8+ T cells producing IFN-γ peptide concentrations in picomolar 48H 0.5 / Geometric mean IFN-γ in arbitrary fluorescence units peptide concentrations in picomolar 48H 0.5: peptide 0.5 pM; for % CD8+ T cells producing IFN-γ peptide concentrations in picomolar 24H 50 / Geometric mean IFN-γ in arbitrary fluorescence units peptide concentrations in picomolar 24H 50 / % CD8+ T cells producing IFN-γ peptide concentrations in picomolar 48H 50 / Geometric mean IFN-γ in arbitrary fluorescence units peptide concentrations in picomolar 48H 50: peptide 50 pM; for % CD8+ T cells producing IFN-γ peptide concentrations in picomolar 24H 5·10^3 / Geometric mean IFN-γ in arbitrary fluorescence units peptide concentrations in picomolar 24H 5·10^3 / % CD8+ T cells producing IFN-γ peptide concentrations in picomolar 48H 5·10^3 / Geometric mean IFN-γ in arbitrary fluorescence units peptide concentrations in picomolar 48H 5·10^3: peptide 5·10^3 pM
substance,measurement,setting,value
[CSME][2-AOC]YDFFVW[PRG],% inhibition at T=4H and T=24H FP 4h,HLA-A0201,98%
same,% inhibition at T=4H and T=24H FP 24h,HLA-A0201,89%
same,% CD8+ T cells producing IFN-γ peptide concentrations in picomolar 24H 0.5,[1],0%
same,Geometric mean IFN-γ in arbitrary fluorescence units peptide concentrations in picomolar 24H 0.5,[1],67 arbitrary fluorescence units
same,% CD8+ T cells producing IFN-γ peptide concentrations in picomolar 24H 50,[1],1%
same,Geometric mean IFN-γ in arbitrary fluorescence units peptide concentrations in picomolar 24H 50,[1],73 arbitrary fluorescence units
same,% CD8+ T cells producing IFN-γ peptide concentrations in picomolar 24H 5·10^3,[1],7%
same,Geometric mean IFN-γ in arbitrary fluorescence units peptide concentrations in picomolar 24H 5·10^3,[1],84 arbitrary fluorescence units
same,% CD8+ T cells producing IFN-γ peptide concentrations in picomolar 48H 0.5,[1],0%
same,Geometric mean IFN-γ in arbitrary fluorescence units peptide concentrations in picomolar 48H 0.5,[1],67 arbitrary fluorescence units
same,% CD8+ T cells producing IFN-γ peptide concentrations in picomolar 48H 50,[1],0%
same,Geometric mean IFN-γ in arbitrary fluorescence units peptide concentrations in picomolar 48H 50,[1],6 arbitrary fluorescence units
same,% CD8+ T cells producing IFN-γ peptide concentrations in picomolar 48H 5·10^3,[1],0%
same,Geometric mean IFN-γ in arbitrary fluorescence units peptide concentrations in picomolar 48H 5·10^3,[1],72 arbitrary fluorescence units
[CSME][NVA]YDFFVW[PRG],% inhibition at T=4H and T=24H FP 4h,HLA-A0201,78%
same,% inhibition at T=4H and T=24H FP 24h,HLA-A0201,78%
same,% CD8+ T cells producing IFN-γ peptide concentrations in picomolar 24H 0.5,[1],0%
same,Geometric mean IFN-γ in arbitrary fluorescence units peptide concentrations in picomolar 24H 0.5,[1],67 arbitrary fluorescence units
same,% CD8+ T cells producing IFN-γ peptide concentrations in picomolar 24H 50,[1],6%
same,Geometric mean IFN-γ in arbitrary fluorescence units peptide concentrations in picomolar 24H 50,[1],80 arbitrary fluorescence units
same,% CD8+ T cells producing IFN-γ peptide concentrations in picomolar 24H 5·10^3,[1],26%
same,Geometric mean IFN-γ in arbitrary fluorescence units peptide concentrations in picomolar 24H 5·10^3,[1],175 arbitrary fluorescence units
same,% CD8+ T cells producing IFN-γ peptide concentrations in picomolar 48H 0.5,[1],1%
same,Geometric mean IFN-γ in arbitrary fluorescence units peptide concentrations in picomolar 48H 0.5,[1],93 arbitrary fluorescence units
same,% CD8+ T cells producing IFN-γ peptide concentrations in picomolar 48H 50,[1],1%
same,Geometric mean IFN-γ in arbitrary fluorescence units peptide concentrations in picomolar 48H 50,[1],67 arbitrary fluorescence units
same,% CD8+ T cells producing IFN-γ peptide concentrations in picomolar 48H 5·10^3,[1],26%
same,Geometric mean IFN-γ in arbitrary fluorescence units peptide concentrations in picomolar 48H 5·10^3,[1],130 arbitrary fluorescence units
[am-phg][CpALA]YDFFVW[PRG],% inhibition at T=4H and T=24H FP 4h,HLA-A0201,80%
same,% inhibition at T=4H and T=24H FP 24h,HLA-A0201,80%
same,% CD8+ T cells producing IFN-γ peptide concentrations in picomolar 24H 0.5,[1],1%
same,Geometric mean IFN-γ in arbitrary fluorescence units peptide concentrations in picomolar 24H 0.5,[1],94 arbitrary fluorescence units
same,% CD8+ T cells producing IFN-γ peptide concentrations in picomolar 24H 50,[1],1%
same,Geometric mean IFN-γ in arbitrary fluorescence units peptide concentrations in picomolar 24H 50,[1],69 arbitrary fluorescence units
same,% CD8+ T cells producing IFN-γ peptide concentrations in picomolar 24H 5·10^3,[1],14%
same,Geometric mean IFN-γ in arbitrary fluorescence units peptide concentrations in picomolar 24H 5·10^3,[1],95 arbitrary fluorescence units
same,% CD8+ T cells producing IFN-γ peptide concentrations in picomolar 48H 0.5,[1],0%
same,Geometric mean IFN-γ in arbitrary fluorescence units peptide concentrations in picomolar 48H 0.5,[1],76 arbitrary fluorescence units
same,% CD8+ T cells producing IFN-γ peptide concentrations in picomolar 48H 50,[1],0%
same,Geometric mean IFN-γ in arbitrary fluorescence units peptide concentrations in picomolar 48H 50,[1],66 arbitrary fluorescence units
same,% CD8+ T cells producing IFN-γ peptide concentrations in picomolar 48H 5·10^3,[1],4%
same,Geometric mean IFN-γ in arbitrary fluorescence units peptide concentrations in picomolar 48H 5·10^3,[1],76 arbitrary fluorescence units
[am-phg][NVA]YDFFVWL,% inhibition at T=4H and T=24H FP 4h,HLA-A0201,79%
same,% inhibition at T=4H and T=24H FP 24h,HLA-A0201,77%
same,% CD8+ T cells producing IFN-γ peptide concentrations in picomolar 24H 0.5,[1],1%
same,Geometric mean IFN-γ in arbitrary fluorescence units peptide concentrations in picomolar 24H 0.5,[1],59 arbitrary fluorescence units
same,% CD8+ T cells producing IFN-γ peptide concentrations in picomolar 24H 50,[1],26%
same,% CD8+ T cells producing IFN-γ peptide concentrations in picomolar 24H 5·10^3,[1],34%
same,Geometric mean IFN-γ in arbitrary fluorescence units peptide concentrations in picomolar 24H 5·10^3,[1],326 arbitrary fluorescence units
same,% CD8+ T cells producing IFN-γ peptide concentrations in picomolar 48H 0.5,[1],1%
same,Geometric mean IFN-γ in arbitrary fluorescence units peptide concentrations in picomolar 48H 0.5,[1],78 arbitrary fluorescence units
same,% CD8+ T cells producing IFN-γ peptide concentrations in picomolar 48H 50,[1],18%
same,% CD8+ T cells producing IFN-γ peptide concentrations in picomolar 48H 5·10^3,[1],40%
same,Geometric mean IFN-γ in arbitrary fluorescence units peptide concentrations in picomolar 48H 5·10^3,[1],255 arbitrary fluorescence units
[PHG][CpALA]YDFFVWL,% inhibition at T=4H and T=24H FP 4h,HLA-A0201,77%
same,% inhibition at T=4H and T=24H FP 24h,HLA-A0201,75%
same,% CD8+ T cells producing IFN-γ peptide concentrations in picomolar 24H 0.5,[1],1%
same,Geometric mean IFN-γ in arbitrary fluorescence units peptide concentrations in picomolar 24H 0.5,[1],71 arbitrary fluorescence units
same,% CD8+ T cells producing IFN-γ peptide concentrations in picomolar 24H 50,[1],12%
same,Geometric mean IFN-γ in arbitrary fluorescence units peptide concentrations in picomolar 24H 50,[1],87 arbitrary fluorescence units
same,% CD8+ T cells producing IFN-γ peptide concentrations in picomolar 24H 5·10^3,[1],30%
same,Geometric mean IFN-γ in arbitrary fluorescence units peptide concentrations in picomolar 24H 5·10^3,[1],221 arbitrary fluorescence units
same,% CD8+ T cells producing IFN-γ peptide concentrations in picomolar 48H 0.5,[1],0%
same,Geometric mean IFN-γ in arbitrary fluorescence units peptide concentrations in picomolar 48H 0.5,[1],70 arbitrary fluorescence units
same,% CD8+ T cells producing IFN-γ peptide concentrations in picomolar 48H 50,[1],6%
same,% CD8+ T cells producing IFN-γ peptide concentrations in picomolar 48H 5·10^3,[1],34%
same,Geometric mean IFN-γ in arbitrary fluorescence units peptide concentrations in picomolar 48H 5·10^3,[1],183 arbitrary fluorescence units
